The values below come from patent US12612412B2, “Antiviral heterocyclic compounds” (Enanta Pharmaceuticals, Inc., priority 2021, dated 2026).

For one experiment, the system named is genotype A, "Long" strain RSV. The experiment in a line: RSV-A assay (CPE protection in Hep-2 cells, ATPlite readout). It is filed as cell-based, Human respiratory syncytial virus (HRSV). To be noted: human respiratory syncytial virus, RSV-A Long strain, MOI 0.1, CPE protection, read-out: Human RSV-A (“Long”) EC50. An excerpt: Hep-2 cells, (originally derived from tumors grown in irradiated-cortisonised weanling rats that had been injected with epidermoid carcinoma tissue from the larynx of a person, but later found to be indistinguishable from HeLa cells by PCR DNA analysis), were used for the culturing of genotype A, “Long” strain RSV. Flasks were inoculated with RSV and viral stocks were collected once cytopathic effect (CPE) was greater than 90%. Viral stocks in 25% sucrose media were snap frozen using liquid nitrogen to increase viral stability. Viral stock titers were quantified by tissue culture infectious dose 50% (TCID50) using 8,000 cells per well and 3-fold viral dilutions across a 96-well plate, cultured for 4 days. Viral stock titers were also quantified by a plaque forming unit assay, as described elsewhere.
Following extensive parameter testing, the final assay is run as follows: Hep-2 cells are seeded into the inner 60 wells of a 96-well plate at 8,000 cells per well in a volume of 50 μL using Growth Media (DMEM without phenol red, 1% L-Glut, 1% Penn/Strep, 1% nonessential amino acids, 10% heat-inactivated FBS). 2-fold serial dilutions of control and test compounds are added to the wells in duplicate in a total volume of 25 μL. Viral stock is then added to the wells at a multiplicity of infection (MOI) of 0.1 in a volume of 25 μL, bringing the total volume of each well to 100 μL. The MOI is calculated using the PFU/mL, or TCID50 if unavailable. Each 96-well plate has a control column of 6 wells with cells and virus but no compound (negative control, max CPE), a column with cells but no compound or virus (positive control, minimum CPE), and a column with no cells or virus or compound (background plate/reagent control). The control wells with cells but no virus are given an additional 25 μL of growth media containing an equal quantity of sucrose as those wells receiving the viral stock in order to keep consistent in media and volume conditions. The outer wells of the plate are filled with 125 μL of moat media (DMEM, 1% Penn/Strep) to act as a thermal and evaporative moat around the test wells. Following a 5-day incubation period, the plates are read using ATPlite (50 uL added per well), which quantifies the amount of ATP (a measure of cell health) present in each well. Assay plates are read using the Envision luminometer. […] EC50 ranges are as follows: A<0.2 μM; B>0.2 μM.
Consider `COc1cc(C(=O)NCC(O)(c2cc3c(c(C4=CCOCC4)n2)OC[C@]3(C)C(N)=O)C(F)(F)F)cc2cn(C3CC3)nc12` (stereo partly drawn) [Example 1240], for which the EC50 was more than 200 nM. The same measure, in the same setting: to `COc1cc(C(=O)NC[C@](O)(c2cc3c(c(-c4cn(C)nc4C(F)(F)F)n2)OC[C@]3(C)C(N)=O)C(F)(F)F)cc2cn(C3CC3)nc12` [Example 904] belongs more than 200 nM; to `Cc1cnc2c(OC(F)F)cc(C(=O)NC[C@](O)(c3cc4c(c(-c5cccc(F)c5Cl)n3)OC[C@]4(C)C(N)=O)C3CC3)cc2c1` [Example 1211], less than 200 nM; to `Cc1cnc2c(OC(F)F)cc(C(=O)NC[C@](O)(c3cc4c(c(-c5cc(Cl)ccc5F)n3)OC[C@]4(C)C(N)=O)C3CC3)cc2c1` [Example 1200], less than 200 nM.

Turning to `COc1cc(C(=O)NC[C@](O)(c2cc3c(c(-c4ccc(F)cc4)n2)OC[C@]3(C)C(=O)NCC(F)(F)F)C(F)(F)F)cc2cn(C3CC3)nc12` [Example 1173], the EC50 is less than 200 nM. As to `COc1cc(C(=O)NC[C@@](O)(c2cc3c(c(-c4ccccc4F)n2)OC[C@]3(C)C(N)=O)C(F)(F)F)cc2cn(C3CC3)nc12` [Example 910], the EC50 is more than 200 nM. Consider `COc1cc(C(=O)NC[C@](O)(c2cc3c(c(-c4cc(Cl)c(Cl)cc4F)n2)OC[C@]3(C)C(N)=O)C(F)(F)F)cc2cn(C3CC3)nc12` [Example 1267], for which the EC50 was less than 200 nM.

With `Cc1cc2cc(C(=O)NC[C@](O)(c3cc4c(c(-c5cccc(F)c5Cl)n3)OC[C@]4(C)C(N)=O)C3CC3)cc(OC3CC3)c2nc1Cl` [Example 1078], the EC50 was less than 200 nM. Same read-out and setting: to `COc1cc(C(=O)NC[C@](O)(c2cc3c(c(-c4c(F)ccc(Cl)c4Cl)n2)OC[C@]3(C)C(N)=O)C(F)(F)F)cc2cn(C3CC3)nc12` [Example 1263] belongs less than 200 nM. Same read-out and setting: to `COc1cc(C(=O)NC[C@](O)(c2cc3c(c(-c4cc(Cl)c(F)cc4F)n2)OC[C@]3(C)C(N)=O)C2CC2)cc2sc(C)nc12` [Example 1131] belongs less than 200 nM; to `COc1cc(C(=O)NC[C@](O)(c2cc3c(c(-c4ccc(F)cc4)n2)OC[C@]3(C)C(N)=O)C2CC2)cc2cc(Br)c(C)nc12` [Example 1117], less than 200 nM.

Still in this experiment, the particulars now being: human respiratory syncytial virus, genotype A “Long” strain RSV, MOI 0.1, CPE protection, read-out: Human RSV-A (“Long”).
On to `C[C@]1(C(N)=O)COc2c1cc([C@@](O)(CNC(=O)c1c[nH]c3ncc(C(F)(F)F)cc13)C(F)(F)F)nc2-c1ccc(F)cc1` [Example 347], for which the EC50 is more than 200 nM.

As for `C[C@]1(C(N)=O)COc2c1cc([C@@](O)(CNC(=O)c1cc3cc[nH]c3cc1F)C(F)(F)F)nc2-c1ccc(F)cc1` [Example 400], the EC50 is more than 200 nM.

In the case of `C[C@]1(C(N)=O)COc2c1cc([C@@](O)(CNC(=O)c1ccnc3[nH]ccc13)C(F)(F)F)nc2-c1ccc(F)cc1` [Example 369], the EC50 is less than 200 nM. For the compound `NC(=O)[C@]1(CF)COc2c1cc([C@@](O)(CNC(=O)c1cc(OC3CC3)c3ncccc3c1)C(F)(F)F)nc2-c1ccc(F)cc1` [Example 296], the EC50 is more than 200 nM. In the case of `C[C@]1(C(N)=O)COc2c1cc([C@@](O)(CNC(=O)c1ccccn1)C(F)(F)F)nc2-c1ccc(F)cc1` [Example 421], the EC50 was more than 200 nM. Still for that read-out and setting: the same measure for `COc1cnc2ccc(C(=O)NC[C@](O)(c3cc4c(c(-c5ccc(F)cc5)n3)OC[C@]4(C)C(N)=O)C(F)(F)F)cc2c1` [Example 229]: less than 200 nM; for `COc1cc(C(=O)NC[C@](O)(c2cc3c(c(-c4ccc(F)cc4)n2)OC[C@@]3(C(N)=O)C2CC2)C(F)(F)F)ccc1OC1CC1` [Example 276]: less than 200 nM. On the same count and under the same terms, to `C[C@]1(C(N)=O)COc2c1cc([C@@](O)(CNC(=O)c1cnn3ccncc13)C(F)(F)F)nc2-c1ccc(F)cc1` [Example 439] belongs more than 200 nM; to `Cn1nc2ccccc2c1C(=O)NC[C@](O)(c1cc2c(c(-c3ccc(F)cc3)n1)OC[C@]2(C)C(N)=O)C(F)(F)F` [Example 424], more than 200 nM; to `C[C@]1(C(N)=O)COc2c1cc([C@@](O)(CNC(=O)c1cnc3ccc(F)cn13)C(F)(F)F)nc2-c1ccc(F)cc1` [Example 367], more than 200 nM.

As to `C[C@]1(C(N)=O)COc2c1cc([C@@](O)(CNC(=O)c1cc(Br)c3oc(N)nc3c1)C(F)(F)F)nc2-c1ccc(F)cc1` [Example 202], the EC50 is less than 200 nM. Same read-out and setting: to `C[C@]1(C(N)=O)COc2c1cc([C@@](O)(CNC(=O)c1cc(O)c3[nH]ncc3c1)C(F)(F)F)nc2-c1ccc(F)cc1` [Example 111] belongs more than 200 nM; to `Cc1sc(-c2ccccc2)nc1C(=O)NC[C@](O)(c1cc2c(c(-c3ccc(F)cc3)n1)OC[C@]2(C)C(N)=O)C(F)(F)F` [Example 483], more than 200 nM. `Cc1cnc2c(Nc3ccc(C(C)(C)C)nn3)cc(C(=O)NC[C@](O)(c3cc4c(c(-c5ccc(F)cc5)n3)OC[C@]4(C)C(N)=O)C(F)(F)F)cc2c1` [Example 118]: the EC50 is less than 200 nM. Same read-out and setting: the same measure for `COc1cc(C(=O)NC[C@](O)(c2cc3c(c(-c4ccc(F)cc4)n2)OC[C@@]3(CF)C(N)=O)C(F)(F)F)cn2cc(C3CC3)nc12` [Example 291]: more than 200 nM; for `CC(C)c1csc(C(=O)NC[C@](O)(c2cc3c(c(-c4ccc(F)cc4)n2)OC[C@]3(C)C(N)=O)C(F)(F)F)n1` [Example 437]: more than 200 nM. On to `CC(C)c1cc(C(=O)NC[C@](O)(c2cc3c(c(-c4ccc(F)cc4)n2)OC[C@]3(C)C(N)=O)C(F)(F)F)cc2cn[nH]c12` [Example 123], for which the EC50 is less than 200 nM. Still for that read-out and setting: to `COc1cc2cc(C(=O)NC[C@](O)(c3cc4c(c(-c5ccc(F)cc5)n3)OC[C@]4(C)C(N)=O)C(F)(F)F)ccc2nc1Cl` [Example 325] belongs less than 200 nM.

For the compound `C[C@]1(C(N)=O)COc2c1cc([C@@](O)(CNC(=O)c1ccn3nc(C4CC4)cc3c1)C1CC1)nc2-c1ccc(F)c(Cl)c1` [Example 492], the EC50 was less than 200 nM.

`COc1cccc2oc(C(=O)NC[C@](O)(c3cc4c(c(-c5ccc(F)cc5)n3)OC[C@]4(C)C(N)=O)C(F)(F)F)cc12` [Example 430]: the EC50 was more than 200 nM. Same read-out and setting: to `C[C@]1(C(N)=O)COc2c1cc([C@@](O)(CNC(=O)c1ccn3ccnc3c1)C(F)(F)F)nc2-c1ccc(F)cc1` [Example 402] belongs more than 200 nM; to `Cc1ccnnc1C(=O)NC[C@](O)(c1cc2c(c(-c3ccc(F)cc3)n1)OC[C@]2(C)C(N)=O)C(F)(F)F` [Example 416], more than 200 nM. On the same count and under the same terms, to `Cc1c(C(=O)NC[C@](O)(c2cc3c(c(-c4ccc(F)cc4)n2)OC[C@]3(C)C(N)=O)C(F)(F)F)ccc2[nH]ncc12` [Example 101] belongs less than 200 nM. Same read-out and setting: to `C[C@H](O)CNc1nc2ccc(C(=O)NC[C@](O)(c3cc4c(c(-c5ccc(F)cc5)n3)OC[C@]4(C)C(N)=O)C(F)(F)F)cc2s1` [Example 163] belongs less than 200 nM; to `Cc1cnc(C(=O)NC[C@](O)(c2cc3c(c(-c4ccc(F)cc4)n2)OC[C@]3(C)C(N)=O)C(F)(F)F)cn1` [Example 390], more than 200 nM; to `CC(C)(O)c1cn2cc(C(=O)NC[C@](O)(c3cc4c(c(-c5ccc(F)cc5)n3)OC[C@]4(C)C(N)=O)C(F)(F)F)cc(F)c2n1` [Example 66], more than 200 nM. With `COc1cc(C(=O)NC[C@](O)(c2cc3c(c(-c4ccc(F)c(Cl)c4)n2)OC[C@]3(C)C(N)=O)C(F)(F)F)cc2cc(Cl)c(C)nc12` [Example 228], the EC50 is less than 200 nM. Still for that read-out and setting: to `C[C@]1(C(N)=O)COc2c1cc([C@@](O)(CNC(=O)c1cn(-c3ccccc3)nc1C(F)(F)F)C(F)(F)F)nc2-c1ccc(F)cc1` [Example 457] belongs more than 200 nM; to `C[C@]1(C(N)=O)COc2c1cc([C@@](O)(CNC(=O)c1ccc3nc(C4CC4)sc3c1)C(F)(F)F)nc2-c1ccc(F)c(Cl)c1` [Example 18], less than 200 nM. On the same count and under the same terms, the same measure for `C[C@]1(C(N)=O)COc2c1cc([C@@](O)(CNC(=O)c1ccc3nc(C4CC4)cn3n1)C(F)(F)F)nc2-c1ccc(F)cc1` [Example 186]: more than 200 nM. Same read-out and setting: to `C[C@]1(C(N)=O)COc2c1cc([C@@](O)(CNC(=O)c1ccc3cc[nH]c3c1F)C(F)(F)F)nc2-c1ccc(F)cc1` [Example 359] belongs more than 200 nM. As for `C[C@]1(C(N)=O)COc2c1cc([C@@](O)(CNC(=O)c1c[nH]c3cccnc13)C(F)(F)F)nc2-c1ccc(F)cc1` [Example 383], the EC50 is more than 200 nM. Still for that read-out and setting: the same measure for `Cc1ccn2cc(C(=O)NC[C@](O)(c3cc4c(c(-c5ccc(F)cc5)n3)OC[C@]4(C)C(N)=O)C(F)(F)F)nc2c1` [Example 805]: more than 200 nM.

As for `C[C@]1(C(N)=O)COc2c1cc([C@@](O)(CNC(=O)c1ccnnc1)C(F)(F)F)nc2-c1ccc(F)cc1` [Example 406], the EC50 is more than 200 nM.
